Tests used:
Assay type in all cases: biochemical
[1] = target: T1, GST-JAK3 enzyme (Homo sapiens, UniProt P52333); test: JAK3 Kinase Assay Protocol (Caliper); details: Caliper LabChip assay, ATP 8 μM, fluoresceinated peptide; read-out: LLE_JAK3_CAL (IC50)
T1 sequence (P52333 1-1124): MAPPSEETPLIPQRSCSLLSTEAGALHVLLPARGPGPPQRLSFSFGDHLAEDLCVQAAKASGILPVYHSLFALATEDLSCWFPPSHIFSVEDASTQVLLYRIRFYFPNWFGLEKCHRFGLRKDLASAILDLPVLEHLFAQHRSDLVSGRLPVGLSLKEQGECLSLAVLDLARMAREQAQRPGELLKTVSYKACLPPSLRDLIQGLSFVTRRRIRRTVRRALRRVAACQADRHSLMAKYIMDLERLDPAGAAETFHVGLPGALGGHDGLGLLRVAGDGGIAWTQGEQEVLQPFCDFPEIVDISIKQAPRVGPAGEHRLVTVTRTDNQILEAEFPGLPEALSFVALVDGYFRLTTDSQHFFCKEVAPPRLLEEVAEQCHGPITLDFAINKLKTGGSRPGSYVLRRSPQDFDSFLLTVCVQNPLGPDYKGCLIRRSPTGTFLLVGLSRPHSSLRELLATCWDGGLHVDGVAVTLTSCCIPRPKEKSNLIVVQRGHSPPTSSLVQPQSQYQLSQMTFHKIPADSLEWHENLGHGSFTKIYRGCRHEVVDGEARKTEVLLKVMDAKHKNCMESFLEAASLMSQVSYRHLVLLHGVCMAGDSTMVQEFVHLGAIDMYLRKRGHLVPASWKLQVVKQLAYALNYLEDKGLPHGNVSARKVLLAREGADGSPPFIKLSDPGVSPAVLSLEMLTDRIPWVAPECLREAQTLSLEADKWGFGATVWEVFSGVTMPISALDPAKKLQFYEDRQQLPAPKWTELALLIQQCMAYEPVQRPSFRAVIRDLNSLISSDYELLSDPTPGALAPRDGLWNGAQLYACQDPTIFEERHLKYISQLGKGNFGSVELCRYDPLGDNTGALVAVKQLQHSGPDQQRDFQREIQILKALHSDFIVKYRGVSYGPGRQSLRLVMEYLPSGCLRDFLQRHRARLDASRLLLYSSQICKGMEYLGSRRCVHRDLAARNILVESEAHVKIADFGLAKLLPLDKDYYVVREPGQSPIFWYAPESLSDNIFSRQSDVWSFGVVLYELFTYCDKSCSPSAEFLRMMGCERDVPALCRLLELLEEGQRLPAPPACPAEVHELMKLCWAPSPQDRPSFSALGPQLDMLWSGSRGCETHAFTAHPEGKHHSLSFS
Description: The assay reactions were performed in U-bottom 384-well plates. […] The reaction was initiated by the combination of GST-JAK3 enzyme with substrates and test compounds. The reactions were incubated at room temperature for 3 hours and terminated by adding 60 μl of 35 mM EDTA to each sample. Each reaction mixture was analyzed on the Caliper LabChip 3000 (Caliper, Hopkinton, Mass.) by electrophoretic separation of the fluorescent substrate and phosphorylated product. […] Compounds were dissolved at 10 mM in dimethylsulfoxide (DMSO) and evaluated at eleven concentrations. IC50 values were derived by non-linear regression analysis.

[2] = target: GST-JAK1 enzyme (Homo sapiens, UniProt P23458); test: JAK1 Kinase Assay Protocol; details: Caliper LabChip assay, ATP 100 μM, fluoresceinated peptide; read-out: LLE_JAK1 (IC50)
Description: The assay reactions were performed in U-bottom 384-well plates. The final assay volume was 30 μl prepared from 15 μl additions of enzyme and substrates (fluoresceinated peptide and ATP) and test compounds in assay buffer (20 mM HEPES pH 7.4, 10 mM MgCl2, 25 mM beta-glycerol phosphate, 0.015% Brij35 and 4 mM DTT). The reaction was initiated by the combination of GST-JAK1 enzyme with substrates and test compounds. The reactions were incubated at room temperature for 3 hours and terminated by adding 60 μl of 35 mM EDTA to each sample. Each reaction mixture was analyzed on the Caliper LabChip 3000 (Caliper, Hopkinton, Mass.) by electrophoretic separation of the fluorescent substrate and phosphorylated product. […] The final concentration of reagents in the assays was: ATP, 100 μM; fluoresceinated peptide, 1.5 μM; GST-JAK1, 12.5 nM; and DMSO, 1.6%. […] Compounds were dissolved at 10 mM in dimethylsulfoxide (DMSO) and evaluated at eleven concentrations. IC50 values were derived by non-linear regression analysis.

[3] = target: T2, JAK3 enzyme (Homo sapiens, UniProt P52333); test: JAK3 Kinase Assay Protocol (Filter); details: 33P γ-ATP, 8 μM ATP, CSKtide substrate, read-out: LLE_JAK3_FB (IC50)
T2 sequence (P52333 1-1124): T1 sequence (P52333 1-1124)
Description: Kinase reactions consisted of 5 ng of JAK3 enzyme, 30 uM CSKtide substrate, 0.2 μCi ^33P γ-ATP, 8 μM ATP in 30 μl kinase buffer (50 mM Hepes, pH 8.0, 10 mM MgCl2, 1 mM EGTA, 2 mM DTT). Reactions were incubated for 30 minutes at room temperature and stopped by the addition of cold trichloroacetic acid (TCA) to a final concentration of 15%. TCA precipitates were collected onto 384 well phosphocellulose filters (Millipore) using a Platemate to transfer the reaction mixture, washed on an EMBLA plate washer and the filters were quantitated using a TopCount 384-well liquid scintillation counter. […] Compounds were dissolved at 10 mM in dimethylsulfoxide (DMSO) and evaluated at six concentrations, each in triplicate. The final concentration of DMSO in the assay equaled 2%. IC50 values were derived by non-linear regression analysis.

Chain of GST-JAK1 enzyme (P23458 whole entry): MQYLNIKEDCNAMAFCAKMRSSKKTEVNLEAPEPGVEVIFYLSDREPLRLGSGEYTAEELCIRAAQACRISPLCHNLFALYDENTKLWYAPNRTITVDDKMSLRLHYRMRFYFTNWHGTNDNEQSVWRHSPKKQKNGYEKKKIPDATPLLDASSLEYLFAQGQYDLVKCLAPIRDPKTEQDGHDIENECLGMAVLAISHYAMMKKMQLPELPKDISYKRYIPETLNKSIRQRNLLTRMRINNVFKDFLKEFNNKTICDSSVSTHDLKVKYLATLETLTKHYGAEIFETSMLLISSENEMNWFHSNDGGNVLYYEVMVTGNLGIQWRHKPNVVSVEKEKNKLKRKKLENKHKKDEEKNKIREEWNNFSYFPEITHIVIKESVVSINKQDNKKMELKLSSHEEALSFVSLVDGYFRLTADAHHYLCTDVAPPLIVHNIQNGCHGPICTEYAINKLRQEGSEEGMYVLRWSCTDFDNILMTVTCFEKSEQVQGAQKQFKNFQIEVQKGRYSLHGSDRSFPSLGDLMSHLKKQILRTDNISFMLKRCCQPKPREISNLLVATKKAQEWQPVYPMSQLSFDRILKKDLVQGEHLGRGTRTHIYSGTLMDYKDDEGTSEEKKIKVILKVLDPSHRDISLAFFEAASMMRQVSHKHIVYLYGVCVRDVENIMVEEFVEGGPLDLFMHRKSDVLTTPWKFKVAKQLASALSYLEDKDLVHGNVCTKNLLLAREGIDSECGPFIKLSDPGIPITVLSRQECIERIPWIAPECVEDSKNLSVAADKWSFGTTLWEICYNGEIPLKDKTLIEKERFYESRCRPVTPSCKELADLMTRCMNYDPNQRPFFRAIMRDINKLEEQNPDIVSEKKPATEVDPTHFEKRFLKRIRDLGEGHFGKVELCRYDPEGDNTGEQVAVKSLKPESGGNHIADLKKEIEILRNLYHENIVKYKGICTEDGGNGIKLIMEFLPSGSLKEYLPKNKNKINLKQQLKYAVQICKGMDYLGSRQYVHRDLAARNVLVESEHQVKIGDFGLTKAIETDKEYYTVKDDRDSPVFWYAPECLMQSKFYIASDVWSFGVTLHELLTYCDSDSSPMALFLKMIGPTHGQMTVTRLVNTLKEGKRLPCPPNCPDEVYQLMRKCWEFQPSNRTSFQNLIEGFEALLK

| Compound | IC50 [1] | IC50 [2] | IC50 [3] |
| --- | --- | --- | --- |
| COc1ccc(-c2cc3c(N[C@H](C)c4ccccc4F)c(C(N)=O)cnn3c2)cn1 [Example 180, 4-(((1R)-1-(2-fluorophenyl)ethyl)amino)-6-(6-methoxy-3-pyridinyl)pyrrolo[1,2-b]pyridazine-3-carboxamide] | 60.9 nM | 1200 nM | 13.5 nM |
| CNc1c(C(N)=O)cnn2cc(-c3cccc(CC#N)c3)cc12 [Example 191, 6-(3-(cyanomethyl)phenyl)-4-(methylamino)pyrrolo[1,2-b]pyridazine-3-carboxamide] | 40.6 nM | 72.3 nM | 88 nM |
| C[C@@H](Nc1c(C(N)=O)cnn2cc(-c3ccccc3)cc12)C(C)(C)C(N)=O [Example 194, (R)-4-(4-amino-3,3-dimethyl-4-oxobutan-2-ylamino)-6-phenylpyrrolo[1,2-b]-pyridazine-3-carboxamide] | 1 nM | 2.8 nM | 1.3 nM |
| C[C@@H](O)[C@@H](CO)Nc1c(C(N)=O)cnn2cc(-c3ccccc3)cc12 [Example 196, 4-((2R,3R)-1,3-dihydroxybutan-2-ylamino)-6-phenylpyrrolo[1,2-b]pyridazine-3-carboxamide] | 3 nM | 5.8 nM | 1.3 nM |
| CNC(=O)c1ccc(-c2cc3c(N[C@H](C)C4CC4)c(C(N)=O)cnn3c2)cn1 [Example 202] | 1.2 nM | 3.8 nM | 1.8 nM |
| C[C@@H](Nc1c(C(N)=O)cnn2cc(-c3cnc(NCCN(C)C)nc3)cc12)C1CC1 [Example 205] | 5.4 nM | 110 nM | 7.9 nM |

More lines, in order of falling IC50 [1], values ahead:

| IC50 [1] | IC50 [2] | IC50 [3] | Compound |
| --- | --- | --- | --- |
| 27.3 nM | 37.3 nM | 11 nM | CCCNc1c(C(N)=O)cnn2cc(-c3ccccc3)cc12 [Example 183, 6-phenyl-4-(propylamino)pyrrolo[1,2-b]pyridazine-3-carboxamide] |
| 8.5 nM | 21.5 nM | 19.1 nM | NC(=O)c1cnn2cc(-c3ccccc3)cc2c1NCC1(CO)CC1 [Example 189, 4-((1-(hydroxymethyl)cyclopropyl)methylamino)-6-phenylpyrrolo[1,2-b]pyridazine-3-carboxamide] |
| 8.4 nM | 73.7 nM | 5.3 nM | CNc1nnc(-c2cc3c(N[C@H](C)C4CC4)c(C(N)=O)cnn3c2)o1 [Example 195, (R)-4-(1-cyclopropylethylamino)-6-(5-(methylamino)-1,3,4-oxadiazol-2-yl)pyrrolo[1,2-b]pyridazine-3-carboxamide] |
| 2.2 nM | 4.8 nM | 1.1 nM | C[C@@H](Nc1c(C(N)=O)cnn2cc(-c3ccc(N)nc3)cc12)C1CC1 [Example 200] |
| 2.1 nM | 13 nM | 1.7 nM | C[C@@H](Nc1c(C(N)=O)cnn2cc(-c3cnc(N)nc3)cc12)C1CC1 [Example 192, (R)-6-(2-aminopyrimidin-5-yl)-4-(1-cyclopropylethylamino)pyrrolo[1,2-b]pyridazine-3-carboxamide] |
| 1.8 nM | 100 nM | 2.3 nM | C[C@@H](Nc1c(C(N)=O)cnn2cc(-c3nnc(N4CCN(C)CC4)o3)cc12)C1(C)CC1 [Example 241, (R)-4-((1-(1-methylcyclopropyl)ethyl)amino)-6-(5-(4-methylpiperazin-1-yl)-1,3,4-oxadiazol-2-yl)pyrrolo[1,2-b]pyridazine-3-carboxamide] |

Reference: patent US9221826B2, “Pyrrolopyridazine JAK3 inhibitors and their use for the treatment of inflammatory and autoimmune diseases” (Bristol-Myers Squibb Company, priority 2011, dated 2015)
